Data as given in patent US20060234997A1, “Tetrahydro-pyridoazepin-8-ones and related compounds for the treatment of schizophrenia” (WARNER-LAMBERT COMPANY LLC, priority 2005, published 2006).

These compounds were tested against T1, Dopamine D2 receptor (hD2L) (Homo sapiens, UniProt P14416) (assay: Dopamine D2 Receptor Binding Assay ([3H]spiperone, CHO-hD2L membranes)). Conditions: [3H]spiperone 0.4 nM, membrane preparation from CHO-hD2L cells.
T1 construct: expressed in transfected cells; host or cells: CHO cells (CHO-hD2L)
From the text: The ability of the novel compounds of this invention to bind to the dopamine D2 receptor can be determined using conventional radioligand receptor binding assays. All receptors can be heterologously expressed in cell lines and binding assays can be conducted in membrane preparations from the cell lines using procedures outlined below. IC50 concentrations can be determined by nonlinear regression of concentration-dependent reduction in specific binding. The Cheng-Prussoff equation can be used to convert the IC50 to Ki concentrations.
[^3H]Spiperone binding to a membrane preparation from CHO-hD2L cells was carried out in 250 μl of 50 mM Tris-HCl buffer containing 100 mM NaCl, 1 mM MgCl2 and 1% DMSO at pH 7.4. Duplicate samples containing (in order of addition) the test compounds, 0.4 nM [^3H]spiperone and approximately 12 μg protein were incubated for 120 minutes at room temperature. Bound radioligand was separated by rapid filtration under reduced pressure through Whatman GF/B glass fiber filters previously treated with 0.3% polyethyleneimine. Radioactivity retained on the filter is determined by liquid scintillation spectrophotometry.

T1 sequence (P14416 whole entry): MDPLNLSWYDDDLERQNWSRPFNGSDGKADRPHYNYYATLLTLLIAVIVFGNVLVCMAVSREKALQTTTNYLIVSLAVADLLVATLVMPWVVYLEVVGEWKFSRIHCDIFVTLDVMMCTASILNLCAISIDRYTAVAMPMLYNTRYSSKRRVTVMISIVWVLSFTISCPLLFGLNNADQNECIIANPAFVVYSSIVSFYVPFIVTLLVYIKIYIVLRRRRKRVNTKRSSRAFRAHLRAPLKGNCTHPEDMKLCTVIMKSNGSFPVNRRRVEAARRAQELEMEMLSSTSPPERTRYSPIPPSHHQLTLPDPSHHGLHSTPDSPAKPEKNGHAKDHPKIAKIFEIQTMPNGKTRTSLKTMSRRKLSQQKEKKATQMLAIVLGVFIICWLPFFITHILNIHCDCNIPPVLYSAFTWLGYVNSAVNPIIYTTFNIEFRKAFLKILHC

Row | Compound | Ki
1 | O=C1NCCc2ccc(OCCCCN3CCN(c4cccc(Cl)c4Cl)CC3)nc2N1 [Example 14, 2-{4-[4-(2,3-Dichloro-phenyl)-piperazin-1-yl]-butoxy}-5,6,7,9-tetrahydro-1,7,9-triaza-benzocyclohepten-8-one] | 1 nM
2 | O=C1NCCc2ccc(OCCCCN3CCN(c4cccc5c4CCCC5)CC3)nc2N1 [Example 16, 2-{4-[4-(5,6,7,8-Tetrahydro-naphthalen-1-yl)-piperazin-1-yl]-butoxy}-5,6,7,9-tetrahydro-1,7,9-triaza-benzocyclohepten-8-one] | 1.41 nM
3 | O=C1CCCc2ccc(OCCCCN3CCN(c4cccc5c4CCC5)CC3)nc2N1 [Example 6, 2-[4-(4-Indan-4-yl-piperazin-1-yl)-butoxy]-5,6,7,9-tetrahydro-pyrido[2,3-b]azepin-8-one] | 1 nM
4 | O=C1CCCc2ccc(OCCCCN3CCN(c4cccc5c4OCCC5)CC3)nc2N1 [Example 4, 2-[4-(4-Chroman-8-yl-piperazin-1-yl)-butoxy]-5,6,7,9-tetrahydro-pyrido[2,3-b]azepin-8-one] | 2 nM
5 | O=C1NCCc2ccc(OCCCCN3CCN(c4cccc5cccc(F)c45)CC3)cc2N1 [Example 42, 8-{4-[4-(8-Fluoro-naphthalen-1-yl)-piperazin-1-yl]-butoxy}-1,3,4,5-tetrahydro-benzo[d][1,3]diazepin-2-one] | 2.32 nM
6 | Cc1c(F)ccc(N2CCN(CCCCOc3ccc4c(c3)NC(=O)NCC4)CC2)c1Cl [Example 30, 8-{4-[4-(2-Chloro-4-fluoro-3-methyl-phenyl)-piperazin-1-yl]-butoxy}-1,3,4,5-tetrahydro-benzo[d][1,3]diazepin-2-one] | 2 nM
7 | CC1(C)Cc2ccc(OCCCCN3CCN(c4cccc5ccccc45)CC3)cc2NC(=O)N1 [Example 59, 4,4-Dimethyl-8-[4-(4-naphthalen-1-yl-piperazin-1-yl)-butoxy]-1,3,4,5-tetrahydro-benzo[d][1,3]diazepin-2-one] | 3 nM
8 | O=C1NCCc2ccc(OCCCN3CCN(c4cccc5ccc(F)cc45)CC3)cc2N1 [Example 44, 8-{3-[4-(7-Fluoro-naphthalen-1-yl)-piperazin-1-yl]-propoxy}-1,3,4,5-tetrahydro-benzo[d][1,3]diazepin-2-one] | 5.44 nM
9 | CN1C(=O)CCc2cccc(N3CCN(CCCCOc4ccc5c(n4)NC(=O)NCC5)CC3)c21 [Example 23, 2-{4-[4-(1-Methyl-2-oxo-1,2,3,4-tetrahydro-quinolin-8-yl)-piperazin-1-yl]-butoxy}-5,6,7,9-tetrahydro-1,7,9-triaza-benzocyclohepten-8-one] | 3 nM
10 | O=C1NCCc2ccc(OCCCCN3CCN(c4cccc5ccccc45)CC3)cc2N1 [Example 32, 8-[4-(4-Naphthalen-1-yl-piperazin-1-yl)-butoxy]-1,3,4,5-tetrahydro-benzo[d][1,3]diazepin-2-one] | 3.45 nM
11 | O=C1NCCc2ccc(OCCCCN3CCN(c4cccc5ccccc45)CC3)nc2N1 [Example 15, 2-[4-(4-Naphthalen-1-yl-piperazin-1-yl)-butoxy]-5,6,7,9-tetrahydro-1,7,9-triaza-benzocyclohepten-8-one] | 1 nM
12 | O=C1NCCc2ccc(OCCCCN3CCN(c4ccc(F)c(Cl)c4Cl)CC3)cc2N1 [Example 36, 8-{4-[4-(2,3-Dichloro-4-fluoro-phenyl)-piperazin-1-yl]-butoxy}-1,3,4,5-tetrahydro-benzo[d][1,3]diazepin-2-one] | 3 nM
13 | O=C1CCCc2ccc(OCCCCN3CCN(c4cccc5c4OCCCO5)CC3)nc2N1 [Example 9, 2-{4-[4-(3,4-Dihydro-2H-benzo[b][1,4]dioxepin-6-yl)-piperazin-1-yl]-butoxy}-5,6,7,9-tetrahydro-pyrido[2,3-b]azepin-8-one] | 2 nM
14 | O=C1CCCc2ccc(OCCCCN3CCN(c4cccc(Cl)c4Cl)CC3)nc2N1 [Example 3, 2-{4-[4-(2,3-dichloro-phenyl)-piperaxin-1-yl]-butoxy}-5,6,7,9-tetrahydro-pyrido[2,3-b]azepin-8-one] | 5.48 nM
15 | O=C1CCCc2ccc(OCCCCN3CCN(c4cccc5ccccc45)CC3)nc2N1 [Example 2, 2-[4-(4-Naphthalen-1-yl-piperazin-1-yl)-butoxy]-5,6,7,9-tetrahydro-pyrido[2,3-b]azepin-8-one] | 3.87 nM
16 | O=C1NCCc2ccc(OCCCCN3CCN(c4cccc5nsnc45)CC3)cc2N1 [Example 39, 8-{4-[4-(2,1,3-benzothiadiazol-4-yl)piperazin-1-yl]butoxy}-1,3,4,5-tetrahydro-2H-1,3-benzodiazepin-2-one] | 2.6 nM
17 | CC1(C)Cc2ccc(OCCCN3CCN(c4cccc5ccccc45)CC3)cc2NC(=O)N1 [Example 60, 4,4-Dimethyl-8-[3-(4-naphthalen-1-yl-piperazin-1-yl)-propoxy]-1,3,4,5-tetrahydro-benzo[d][1,3]diazepin-2-one] | 9.38 nM
18 | CN1C(=O)CCc2cccc(N3CCN(CCCCOc4ccc5c(n4)NC(=O)CCC5)CC3)c21 [Example 11, 2-{4-[4-(1-Methyl-2-oxo-1,2,3,4-tetrahydro-quinolin-8-yl)-piperazin-1-yl]-butoxy}-5,6,7,9-tetrahydro-pyrido[2,3-b]azepin-8-one] | 18.9 nM
19 | O=C1NCCc2ccc(OCCCCN3CCN(c4cccc5ccc(F)cc45)CC3)cc2N1 [Example 38, 8-{4-[4-(7-Fluoro-naphthalen-1-yl)-piperazin-1-yl]-butoxy}-1,3,4,5-tetrahydro-benzo[d][1,3]diazepin-2-one] | 2.22 nM
20 | O=C1CCCc2ccc(OCCCCN3CCN(c4cccc5c4OCC5)CC3)nc2N1 [Example 7, 2-{4-[4-(2,3-Dihydro-benzofuran-7-yl)-piperazin-1-yl]-butoxy}-5,6,7,9-tetrahydro-pyrido[2,3-b]azepin-8-one] | 3.46 nM
21 | N#Cc1ccc2cccc(N3CCN(CCCCOc4ccc5c(n4)NC(=O)NCC5)CC3)c2c1 [Example 22, 8-{4-[4-(8-Oxo-6,7,8,9-tetrahydro-5H-1,7,9-triaza-benzocyclohepten-2-yloxy)-butyl]-piperazin-1-yl}-naphthalene-2-carbonitrile] | 0.4 nM
22 | O=C1NCCc2ccc(OCCCCN3CCN(c4cccc5c4OCCC5)CC3)nc2N1 [Example 17, 2-[4-(4-Chroman-8-yl-piperazin-1-yl)-butoxy]-5,6,7,9-tetrahydro-1,7,9-triaza-benzocyclohepten-8-one] | 1 nM
23 | N#Cc1ccc2cccc(N3CCN(CCCCOc4ccc5c(n4)NC(=O)CCC5)CC3)c2c1 [Example 10, 8-{4-[4-(8-Oxo-6,7,8,9-tetrahydro-5H-pyrido[2,3-b]azepin-2-yloxy)-butyl]-piperazin-1-yl}-naphthalene-2-carbonitrile] | 2.79 nM
24 | COc1ccc2cccc(N3CCN(CCCOc4ccc5c(c4)NC(=O)NCC5)CC3)c2n1 [Example 41, 8-{3-[4-(2-Methoxy-quinolin-8-yl)-piperazin-1-yl]-propoxy}-1,3,4,5-tetrahydro-benzo[d][1,3]diazepin-2-one] | 1.04 nM
25 | O=C1CCCc2ccc(OCCCCN3CCN(c4cccc5ccc(F)cc45)CC3)nc2N1 [Example 8, 2-{4-[4-(7-Fluoro-naphthalen-1-yl)-piperazin-1-yl]-butoxy}-5,6,7,9-tetrahydro-pyrido[2,3-b]azepin-8-one] | 1 nM
26 | O=C1NCCc2ccc(OCCCCN3CCN(c4cccc5c4COCC5)CC3)cc2N1 [Example 45, 8-[4-(4-Isochroman-8-yl-piperazin-1-yl)-butoxy]-1,3,4,5-tetrahydro-benzo[d][1,3]diazepin-2-one] | 6.14 nM
